Assay results: patent publication US20240376097A1, “BCL-2 Inhibitor” (BeiGene Ltd., priority 2020, published 2024)
Read-outs that look alike come from different tables or passages of the source.

How the values were obtained:
[1] = test system: BCL-2 G101V knock-in cell line H96 (derive from RS4;11); test: Bcl 2-G101V Knock-In RS4;11 Cell Proliferation Assay; format: cell-based; settings: Homo sapiens, RS4-11, 48 h, RS4;11 Bcl-2 G101V knock-in clone H96, 48 hrs, CellTiter-GLO, read-out: Cellular proliferation assay (IC50, nM) RS4
In short: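 H96, a CRISPR-generated RS4;11 clone carrying BCL2-G101V knock-in (WES/RNA-seq validated), seeded 50,000 per well and exposed 48 h at 37 °C to 10-point dilutions topping at 1 or 10 μM. Viability by CellTiter-Glo luminescence; mean IC50.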

[2] = Metabolic Stability Study, liver microsome incubation (human); format: in vitro ADME; settings: human liver microsomes 0.5 mg/mL, 1 μM compound, NADPH; for half-life at 1 μM: NA^# = very stable, beyond the detection limits, read-out: T1/2 (min) Human; for microsomal CLint at 1 μM: read-out: CLint (μL × min^−1 × mg^−1) Human
In short: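 Test compounds (1 μM) incubated at 37° C with 0.5 mg/mL liver microsomes plus NADPH regenerating system; samples quenched at 0, 30 and 60 min. Parent loss measured by LC-MS/MS, giving CLint and T1/2, with CLint normalised to microsomal protein concentration.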

[3] = test system: recombinant human Bcl-2-G101V protein; test: Bcl-2-G101V TR-FRET Assay; format: binding; settings: for ratio of IC50 of Bcl-2 G101V/Bcl-2 wt, compared with Example F132b in WO2019210828 and ABT-199 (venetoclax): comparison in words; for Ratio of Bcl-2 G101V/WT: ratio of biochemical IC50 Bcl-2 G101V / Bcl-2 WT
In short: (§1)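 Percent inhibition of the Bcl-2-G101V–ligand interaction was computed from the 490 nm to 520 nm emission ratio after 337 nm excitation, over increasing compound concentrations; a four-parameter logistic fit gave IC50.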

[4] = molecular target: recombinant human Bcl-2-G101V protein (Homo sapiens (Human), UniProt P10415, G101V); test: Bcl-2-G101V TR-FRET Assay; format: binding; settings: Bcl-2 G101V mutant, TR-FRET; read-out: Biochemical assay (IC50, nM) Bcl-2 G101V
In short: as §1

[5] = molecular target: Recombinant human Bcl-2 protein (Homo sapiens (Human), UniProt P10415); test: Bcl-2 TR-FRET Assay; format: binding
In short: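 Compounds were pre-incubated with 0.05 nM recombinant Bcl-2 for 0.5 h at room temperature in potassium phosphate buffer, pH 7.5. FITC-Bak peptide (0.5 nM) and Tb-cryptate antibody were then added for 1 h. Percent inhibition from TR-FRET signals gave IC50 values.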

[6] = Bcl-2 wild type, TR-FRET, read-out: Biochemical assay (IC50, nM) Bcl-2 WT
[7] = wild type Bcl-2, unit inferred, read-out: Bcl-2 WT

SMILES	IC50 [1] [nM]	half-life at 1 μM [2] [min]	microsomal CLint at 1 μM [2] [µL/min/mg]	ratio of IC50 of Bcl-2 G101V/Bcl-2 wt, compared with Example F132b in WO2019210828 and ABT-199 (venetoclax) [3]	Ratio of Bcl-2 G101V/WT [3]	IC50 [4] [nM]	IC50 [5, 6] [nM]	IC50 [5, 7] [nM]
COc1cc(CN2CCN(C3CC4(C3)CN(c3ccc(C(=O)NS(=O)(=O)c5ccc(NC[C@H]6CC[C@](C)(O)CC6)c([N+](=O)[O-])c5)c(Oc5cnc6[nH]ccc6c5)c3)C4)[C@H](c3ccccc3C(C)C)C2)ccc1C1CC1 [Example 233, 2-((1H-pyrrolo[2,3-b]pyridin-5-yl)oxy)-4-(6-((R)-4-(4-cyclopropyl-3-methoxybenzyl)-2-(2-isopropylphenyl)piperazin-1-yl)-2-azaspiro[3.3]heptan-2-yl)-N-((4-((((1r,4r)-4-hydroxy-4-methylcyclohexyl)methyl)amino)-3-nitrophenyl)sulfonyl)benzamide]	0.25	534	2.6	much lower	2.2	0.95	0.43	0.43
COc1cc(CN2CCN(C3CC4(C3)CN(c3ccc(C(=O)NS(=O)(=O)c5ccc(NC[C@H]6CC[C@](C)(O)CC6)c([N+](=O)[O-])c5)c(Oc5cnc6[nH]cc(F)c6c5)c3)C4)[C@H](c3ccccc3C(C)C)C2)ccc1N1CCOCC1 [Example 361, 2-((3-fluoro-1H-pyrrolo[2,3-b]pyridin-5-yl)oxy)-N-((4-((((1r,4r)-4-hydroxy-4-methylcyclohexyl)methyl)amino)-3-nitrophenyl)sulfonyl)-4-(6-((R)-2-(2-isopropylphenyl)-4-(3-methoxy-4-morpholinobenzyl)piperazin-1-yl)-2-azaspiro[3.3]heptan-2-yl) benzamide]	0.13		< 1		3.1	0.16	0.051	0.048
COc1cc(CN2CCN(C3CC4(C3)CN(c3ccc(C(=O)NS(=O)(=O)c5ccc(NC[C@H]6CC[C@](C)(O)CC6)c([N+](=O)[O-])c5)c(Oc5cnc6[nH]cc(F)c6c5)c3)C4)[C@H](c3ccccc3C(C)C)C2)cc(F)c1OC [Example 230, 2-((3-fluoro-1H-pyrrolo[2,3-b]pyridin-5-yl)oxy)-4-(6-((R)-4-(3-fluoro-4,5-dimethoxybenzyl)-2-(2-isopropylphenyl)piperazin-1-yl)-2-azaspiro[3.3]heptan-2-yl)-N-((4-((((1r,4r)-4-hydroxy-4-methylcyclohexyl)methyl)amino)-3-nitrophenyl)sulfonyl)benzamide]	0.28	373	3.7		2.8	0.52	0.19	
COc1cc(CN2CCN(C3CC4(C3)CN(c3ccc(C(=O)NS(=O)(=O)c5ccc(NC[C@H]6CC[C@](C)(O)CC6)c([N+](=O)[O-])c5)c(Oc5cnc6[nH]cc(F)c6c5)c3)C4)[C@H](c3ccccc3C(C)C)C2)ccc1OC1CC1 [Example 321, 4-(6-((R)-4-(4-cyclopropoxy-3-methoxybenzyl)-2-(2-isopropylphenyl)piperazin-1-yl)-2-azaspiro[3.3]heptan-2-yl)-2-((3-fluoro-1H-pyrolo[2,3-b]pyridin-5-yl)oxy)-N-((4-((((1r,4r)-4-hydroxy-4-methylcyclohexy)methyl)amino)-3-nitrophenyl)sulfonyl)benzamide]	0.24	1020	1.4		2	0.35	0.17	0.17
CC(C)c1ccccc1C1CN(Cc2ccc(Cl)cc2)CCN1C1CC2(CCN(c3ccc(C(=O)NS(=O)(=O)c4ccc(NC[C@H]5CC[C@](C)(O)CC5)c([N+](=O)[O-])c4)c(Oc4cnc5[nH]ccc5c4)c3)CC2)C1 (stereo partly shown) [Example 29, 2-((1H-pyrrolo[2,3-b]pyridin-5-yl)oxy)-4-(2-(4-(4-chlorobenzyl)-2-(2-isopropylphenyl)piperazin-1-yl)-7-azaspiro[3.5]nonan-7-yl)-N-((4-((((1r,4r)-4-hydroxy-4-methylcyclohexyl)methyl)amino)-3-nitrophenyl)sulfonyl)benzamide]	2.95	245	5.6		5.2	1.5	0.29	0.29
COc1cc(CN2CCN(C3CC4(CCN(c5ccc(C(=O)NS(=O)(=O)c6ccc(NC[C@H]7CC[C@](C)(O)CC7)c([N+](=O)[O-])c6)c(Oc6cnc7[nH]cc(F)c7c6)c5)CC4)C3)[C@H](c3ccccc3C(C)C)C2)cc2ccoc12 [Example 281, 2-((3-fluoro-1H-pyrrolo[2,3-b]pyridin-5-yl)oxy)-N-((4-((((1r,4r)-4-hydroxy-4-methylcyclohexyl)methyl)amino)-3-nitrophenyl)sulfonyl)-4-(2-((R)-2-(2-isopropylphenyl)-4-((7-methoxybenzofuran-5-yl)methyl)piperazin-1-yl)-7-azaspiro[3.5]nonan-7-yl)benzamide]	0.31	870	1.6		2.3	0.99	0.43	0.43
COc1ccc(CN2CCN(C3CC4(CCN(c5ccc(C(=O)NS(=O)(=O)c6ccc(NCC7(F)CCOCC7)c([N+](=O)[O-])c6)c(Oc6cnc7[nH]ccc7c6)c5)CC4)C3)[C@H](c3ccccc3C(C)C)C2)cc1 (single isomer, unassigned) [Example 32, (R or S)-2-((1H-pyrrolo[2,3-b]pyridin-5-yl)oxy)-N-((4-(((4-fluorotetrahydro-2H-pyran-4-yl)methyl)amino)-3-nitrophenyl)sulfonyl)-4-(2-(2-(2-isopropylphenyl)-4-(4-methoxybenzyl)piperazin-1-yl)-7-azaspiro[3.5]nonan-7-yl)benzamide]	0.96	533	2.6		2.9	0.28	0.096	0.096
COc1cc(CN2CCN(C3CC4(CCN(c5ccc(C(=O)NS(=O)(=O)c6ccc(NC[C@H]7CC[C@](C)(O)CC7)c([N+](=O)[O-])c6)c(Oc6cnc7[nH]cc(F)c7c6)c5)CC4)C3)[C@H](c3ccccc3C(C)C)C2)cc2c1OCC2(C)C [Example 285, 2-((3-fluoro-1H-pyrrolo[2,3-b]pyridin-5-yl)oxy)-N-((4-((((1r,4r)-4-hydroxy-4-methylcyclohexyl)methyl)amino)-3-nitrophenyl)sulfonyl)-4-(2-((R)-2-(2-isopropylphenyl)-4-((7-methoxy-3,3-dimethyl-2,3-dihydrobenzofuran-5-yl)methyl)piperazin-1-yl)-7-azaspiro [3.5]nonan-7-yl)benzamide]	0.41	299	4.6		3.4	0.87	0.26	0.26
COc1cc(CN2CCN(C3CC4(C3)CN(c3ccc(C(=O)NS(=O)(=O)c5ccc(NC[C@H]6CC[C@](C)(O)CC6)c([N+](=O)[O-])c5)c(Oc5cnc6[nH]cc(F)c6c5)c3)C4)[C@H](c3ccccc3C(C)C)C2)ccc1C1CC1 [Example 232, 4-(6-((R)-4-(4-cyclopropyl-3-methoxybenzyl)-2-(2-isopropylphenyl)piperazin-1-yl)-2-azaspiro[3.3]heptan-2-yl)-2-((3-fluoro-1H-pyrrolo[2,3-b]pyridin-5-yl)oxy)-N-((4-((((1r,4r)-4-hydroxy-4-methylcyclohexyl)methyl)amino)-3-nitrophenyl)sulfonyl)benzamide]	0.19	822	1.7	much lower	1.8	1.3	0.7	0.59
COc1ccc(CN2CCN(C3CC4(CCN(c5ccc(C(=O)NS(=O)(=O)c6ccc(NC[C@H]7CC[C@](C)(O)CC7)c([N+](=O)[O-])c6)c(Oc6cnc7[nH]ccc7c6)c5)CC4)C3)C(c3ccccc3C(C)C)C2)cn1 (stereo partly shown) [Example 72, 2-((1H-pyrrolo[2,3-b]pyridin-5-yl)oxy)-N-((4-((((1r,4r)-4-hydroxy-4-methylcyclohexyl)methyl)amino)-3-nitrophenyl)sulfonyl)-4-(2-(2-(2-isopropylphenyl)-4-((6-methoxypyridin-3-yl)methyl)piperazin-1-yl)-7-azaspiro[3.5]nonan-7-yl)benzamide]	1.7	491	2.8		4	0.2	0.05	0.05
